The assay deals with T1, human ADRA2B receptor (Homo sapiens, UniProt P18089).
T1 construct: expressed in transfected cells
T1 sequence (P18089 1-450): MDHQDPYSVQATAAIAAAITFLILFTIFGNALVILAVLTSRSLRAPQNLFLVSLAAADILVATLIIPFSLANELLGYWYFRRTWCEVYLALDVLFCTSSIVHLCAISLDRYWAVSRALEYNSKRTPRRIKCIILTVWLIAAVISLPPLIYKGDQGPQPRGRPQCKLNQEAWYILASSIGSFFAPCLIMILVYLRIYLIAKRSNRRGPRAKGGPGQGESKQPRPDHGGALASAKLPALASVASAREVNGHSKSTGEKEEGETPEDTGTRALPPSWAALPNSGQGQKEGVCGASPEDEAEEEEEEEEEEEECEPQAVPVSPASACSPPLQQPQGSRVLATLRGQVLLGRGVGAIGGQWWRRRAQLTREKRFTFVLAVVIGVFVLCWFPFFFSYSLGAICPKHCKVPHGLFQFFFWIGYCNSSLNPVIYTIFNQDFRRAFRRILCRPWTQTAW
As to the kind of experiment: GTPγS agonist assay, ADRA2B receptor. Type of assay: biochemical. Particulars: read-out: GTPase - Human Alpha2B EC50. In short, it runs like this:
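CHO-K1 membranes stably expressing human ADRA2B (5 μg protein) in 20 mM HEPES, 10 mM MgCl2, 200 mM NaCl with GDP, preincubated 10 min at room temperature with compound. Binding reaction 1 h at 37° C; bound label collected on GF/C filters, washed, read by scintillation counting.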

For `Cc1cccc(C(Cc2ccc(Cl)cn2)c2cnc[nH]2)c1C` (stereo not shown) [Compound 90, 5-chloro-2-[2-(2,3-dimethylphenyl)-2-(1H-imidazol-4-yl)ethyl] pyridine], the EC50 (commonly the concentration giving half of the maximal effect) is less than 10 nM.
Then `COc1cc(OC)nc(CC(c2c[nH]cn2)c2cccc(C)c2C)n1` (stereo not shown) [Compound 91, 2-[2-(2,3-dimethylphenyl)-2-(1H-imidazol-4-yl)ethyl]-4,6-dimethoxy-pyrimidine], with less than 10 nM; and `Cc1cccc(C(Cc2ccncn2)c2cnc[nH]2)c1C` (stereo not shown) [Compound 92, 4-[2-(2,3-dimethylphenyl)-2-(1H-imidazol-4-yl)ethyl] pyrimidine], with 10 to 50 nM.
Next, `Cc1cccc(C(Cc2ncccn2)c2cnc[nH]2)c1C` (stereo not shown) [Compound 93, 2-[2-(2,3-dimethylphenyl)-2-(1H-imidazol-4-yl)ethyl] pyrimidine]: 50 to 500 nM.
Next, `Cc1cccc(C(Cc2cnccn2)c2cnc[nH]2)c1C` (stereo not shown) [Compound 94, 2-[2-(2,3-dimethylphenyl)-2-(1H-imidazol-4-yl)ethyl] pyrazine]: 50 to 500 nM; `Cc1cc(C)nc(CC(c2cnc[nH]2)c2cccc(C)c2C)c1` (stereo not shown) [Compound 95, 2-[2-(2,3-dimethylphenyl)-2-(1H-imidazol-4-yl)ethyl]-4,6-dimethyl-pyridine]: less than 10 nM; `Cc1cccc(CC(c2cnc[nH]2)c2cccc(C)c2C)n1` (stereo not shown) [Compound 96, 2-[2-(2,3-dimethylphenyl)-2-(1H-imidazol-4-yl)ethyl]-6-methyl-pyridine]: 10 to 50 nM.
In the case of `Cc1cccc(C(Cc2ccncc2)c2cnc[nH]2)c1C` (stereo not shown) [Compound 97, 4-[2-(2,3-dimethylphenyl)-2-(1H-imidazol-5-yl)ethyl] pyridine], the EC50 was less than 10 nM.
Next, `COc1cccc(C[C@@H](c2c[nH]cn2)c2cccc(Cl)c2Cl)n1` [Compound 98, 4-[(R)-1-(2,3-dichlorophenyl)-2-(6-methoxy-2-pyridyl)ethyl] imidazole]: less than 10 nM; `COc1cccc(C[C@H](c2c[nH]cn2)c2cccc(Cl)c2Cl)n1` [Compound 99, 4-[(S)-1-(2,3-dichlorophenyl)-2-(6-methoxy-2-pyridyl)ethyl] imidazole]: more than 500 nM; `Cc1cccc([C@@H](Cc2ccon2)c2c[nH]cn2)c1C` [Compound 100, 3-[(R)-2-(4-imidazolyl)-2-(2,3-xylyl)ethyl] isoxazole]: 10 to 50 nM.
Next, `Cc1cccc([C@H](Cc2ccon2)c2c[nH]cn2)c1C` [Compound 101, 3-[(S)-2-(4-imidazolyl)-2-(2,3-xylyl)ethyl] isoxazole]: 50 to 500 nM; `Cc1nc(C[C@@H](c2cnc[nH]2)c2cccc(C)c2C)cs1` [Compound 102, 4-[(R)-2-(4-imidazolyl)-2-(2,3-xylyl)ethyl]-2-methyl-1,3-thiazole]: 10 to 50 nM; `Cc1nc(C[C@H](c2c[nH]cn2)c2cccc(C)c2C)cs1` [Compound 103, 4-[(S)-2-(4-imidazolyl)-2-(2,3-xylyl)ethyl]-2-methyl-1,3-thiazole]: more than 500 nM.
Next, `Cc1cccc(C(Cc2ccnnc2)c2cnc[nH]2)c1C` (stereo not shown) [Compound 104, 4-[2-(4-imidazolyl)-2-(2,3-xylyl)ethyl] pyridazine]: more than 500 nM.
For the compound `Cc1cccc([C@@H](Cc2ccn(C)n2)c2c[nH]cn2)c1C` [Compound 105, 3-[(R)-2-(4-imidazolyl)-2-(2,3-xylyl)ethyl]-1-methylpyrazole], the EC50 was more than 500 nM.
Then `Cc1cccc([C@H](Cc2ccn(C)n2)c2c[nH]cn2)c1C` [Compound 106, 3-[(S)-2-(4-imidazolyl)-2-(2,3-xylyl)ethyl]-1-methylpyrazole], with 10 to 50 nM; and `FC(F)Oc1ccccc1C(Cc1ccccn1)c1c[nH]cn1` (stereo not shown) [Compound 107, 4-[1-(o-difluoro-methoxyphenyl) 2-(2-pyridyl)ethyl] imidazole], with more than 500 nM; and `COc1ncc(C[C@@H](c2c[nH]cn2)c2cccc(Cl)c2C)cn1` [Compound 108, 5-[(R)-2-(3-chloro-2-tolyl)-2-(4-imidazolyl)ethyl]-2-methoxy-pyrimidine], with 50 to 500 nM.
Next, `COc1ncc(C[C@H](c2c[nH]cn2)c2cccc(Cl)c2C)cn1` [Compound 109, 5-[(S)-2-(3-chloro-2-tolyl)-2-(4-imidazolyl)ethyl]-2-methoxy-pyrimidine]: less than 10 nM; `COc1cccc(C[C@@H](c2c[nH]cn2)c2cccc(OC)c2Cl)n1` [Compound 110, 4-[(R)-1-(2-chloro-3-methoxyphenyl)-2-(6-methoxy-2-pyridyl)ethyl] imidazole]: less than 10 nM; `COc1cccc(C[C@H](c2c[nH]cn2)c2cccc(OC)c2Cl)n1` [Compound 111, 4-[(S)-1-(2-chloro-3-methoxyphenyl)-2-(6-methoxy-2-pyridyl)ethyl] imidazole]: 50 to 500 nM.
With `Cc1cccc(C(Cc2ncc(F)cn2)c2c[nH]cn2)c1C` (stereo not shown) [Compound 112, 5-fluoro-2-[2-(4-imidazolyl)-2-(2,3-xylyl)ethyl] pyrimidine], the EC50 was in the range of 50 to 500 nM.
Then `Cc1cccc(C(Cc2c(C)noc2C)c2c[nH]cn2)c1C` (stereo not shown) [Compound 113, 4-[2-(4-imidazolyl)-2-(2,3-xylyl)ethyl]-3,5-dimethyl-isoxazole], with 50 to 500 nM; and `Cc1cc(CC(c2c[nH]cn2)c2cccc(C)c2C)no1` (stereo not shown) [Compound 114, 3-[2-(4-imidazolyl)-2-(2,3-xylyl)ethyl]-5-methyl-isoxazole], with less than 10 nM.
Next, `FC1(F)Oc2cccc(C(Cc3ccccn3)c3c[nH]cn3)c2O1` (stereo not shown) [Compound 115, 2,2-difluoro-4-[1-(4-imidazolyl)-2-(2-pyridyl)ethyl]-2H-1,3-benzodioxole]: 50 to 500 nM; `Cc1cccc(C(Cc2cncs2)c2c[nH]cn2)c1C` (stereo not shown) [Compound 116, 5-[2-(4-imidazolyl)-2-(2,3-xylyl)ethyl]-1,3-thiazole]: 10 to 50 nM; `Cc1cccc(C(Cc2ncco2)c2c[nH]cn2)c1C` (stereo not shown) [Compound 117, 2-[2-(4-imidazolyl)-2-(2,3-xylyl)ethyl]-1,3-oxazole]: 50 to 500 nM.
Then `Cc1cccc(C(Cc2cscn2)c2c[nH]cn2)c1C` (stereo not shown) [Compound 118, 4-[2-(4-imidazolyl)-2-(2,3-xylyl)ethyl]-1,3-thiazole], with 10 to 50 nM; and `Cc1cccc([C@@H](Cc2cscn2)c2c[nH]cn2)c1C` [Compound 119, 4-[(R)-2-(4-imidazolyl)-2-(2,3-xylyl)ethyl]-1,3-thiazole], with less than 10 nM.
For `Cc1cccc([C@H](Cc2cscn2)c2c[nH]cn2)c1C` [Compound 120, 4-[(S)-2-(4-imidazolyl)-2-(2,3-xylyl)ethyl]-1,3-thiazole], the EC50 is more than 500 nM.
Then `FC1(F)Oc2cccc([C@@H](Cc3ccccn3)c3c[nH]cn3)c2O1` [Compound 121, 4-[(R)-1-(4-imidazolyl)-2-(2-pyridyl)ethyl]-2,2-difluoro-2H-1,3-benzodioxole], with 50 to 500 nM.
Next, `FC1(F)Oc2cccc([C@H](Cc3ccccn3)c3c[nH]cn3)c2O1` [Compound 122, 4-[(S)-1-(4-imidazolyl)-2-(2-pyridyl)ethyl]-2,2-difluoro-2H-1,3-benzodioxole]: more than 500 nM; `Cc1nc(C)c(C[C@@H](c2c[nH]cn2)c2cccc(C)c2C)s1` [Compound 123, 5-[(R)-2-(4-imidazolyl)-2-(2,3-xylyl)ethyl]-2,4-dimethyl-1,3-thiazole]: less than 10 nM; `Cc1nc(C)c(C[C@H](c2c[nH]cn2)c2cccc(C)c2C)s1` [Compound 124, 5-[(S)-2-(4-imidazolyl)-2-(2,3-xylyl)ethyl]-2,4-dimethyl-1,3-thiazole]: 10 to 50 nM.
Next, `COc1cccc(CC(c2c[nH]cn2)c2cccc3c2OC(F)(F)O3)n1` (stereo not shown) [Compound 125, 2,2-difluoro-4-[1-(4-imidazolyl)-2-(6-methoxy-2-pyridyl)ethyl]-2H-1,3-benzodioxole]: 10 to 50 nM; `Cc1cccc(C(Cc2cocn2)c2c[nH]cn2)c1C` (stereo not shown) [Compound 126, 4-[2-(4-imidazolyl)-2-(2,3-xylyl)ethyl]-1,3-oxazole]: less than 10 nM; `Cc1cccc(C(Cc2ccnn2C)c2c[nH]cn2)c1C` (stereo not shown) [Compound 127, 5-[2-(4-imidazolyl)-2-(2,3-xylyl)ethyl]-1-methyl-pyrazole]: less than 10 nM.
In the case of `Cc1cccc([C@@H](Cc2cncs2)c2c[nH]cn2)c1C` [Compound 128, 5-[(R)-2-(4-imidazolyl)-2-(2,3-xylyl)ethyl]-1,3-thiazole], the EC50 lay in the range of 50 to 500 nM.
For `Cc1cccc([C@H](Cc2cncs2)c2c[nH]cn2)c1C` [Compound 129, 5-[(S)-2-(4-imidazolyl)-2-(2,3-xylyl)ethyl]-1,3-thiazole], the EC50 is less than 10 nM.
On to `Cc1cccc([C@@H](Cc2ccnn2C)c2c[nH]cn2)c1C` [Compound 130, 5-[(R)-2-(4-imidazolyl)-2-(2,3-xylyl)ethyl]-1-methyl-pyrazole], for which the EC50 was less than 10 nM.
Next, `Cc1cccc([C@H](Cc2ccnn2C)c2c[nH]cn2)c1C` [Compound 131, 5-[(S)-2-(4-imidazolyl)-2-(2,3-xylyl)ethyl]-1-methyl-pyrazole]: 10 to 50 nM.
Next, `Cc1csc(CC(c2c[nH]cn2)c2cccc(C)c2C)n1` (stereo not shown) [Compound 132, 2-[2-(4-imidazolyl)-2-(2,3-xylyl)ethyl]-4-methyl-1,3-thiazole]: less than 10 nM.

Values taken from patent US20260042769A1, “TRIARYL AGONISTS OF ALPHA-2 ADRENERGIC RECEPTORS” (ALCEPTOR THERAPEUTICS, INC., priority 2023, published 2026).
